Measured values taken from US9624243B2, “Heterocyclic compounds and methods of their use” (Novartis AG, priority 2012, dated 2017).

Target: AT2 receptor (Homo sapiens (Human), UniProt P50052)
Test: AT2 Receptor Binding
Details: HEK293 AT2 receptor transient cell membranes, [125I]-CGP42112A
Procedure: 1. Trypsin-EDTA (for Preparation of 100 mL)
• Dissolve trypsin in 2% EDTA and PBS completely; sterilize the solution by passing through a […] membrane filter; store at 4° C.
2. DMEM Medium (for Preparation of 1 L) • The powder was dissolved into 950 mL of distilled water with gentle stirring until the solution becomes clear. • Add. NaHCO3 1.176 g for DMEM medium. • Adjust pH of medium to 0.2˜0.3 below final working pH using 1 M NaOH or 1 M • HCl. Add slowly with stirring. • Dilute to 1 liter with ddH2O. • Sterilize the medium immediately by filtration. • Store at 4° C.
3. TE Buffer • 20 mM Tris-HCl, pH 7.4, • 5 mM EDTA
4. Binding Assay Buffer • 50 mM Hepes, pH 7.4 • 5 mM MgCl2 • 1 mM CaCl2 • 0.2% BSA
5. Wash Buffer • 50 mM Hepes, pH 7.4 Procedures for HEK293AT2 Receptor Transient Cell Transfection • Cells were plated into 150 mm dish at 50% density for transient transfection. Cells were ready for transfection after overnight incubation (the confluence reaches around 80%). • 75 μL Lipofectamine™2000 diluted in 6.25 mL OptiMEM I Reduced Serum Medium, was mixed gently, and incubated at room temperature for 5 minutes. 50 μg expression plasmid DNA diluted in 6.25 mL OptiMEM I Reduced Serum Medium without serum was mixed gently. • After the 5 minute incubation, the diluted DNA was combined with the diluted Lipofectamine™2000 (total volume is 12.5 mL). The mixture was mixed gently and incubated for 30 minutes at room temperature to allow the DNA-Lipofectamine™2000 complexes to form. • The 12.5 mL DNA-Lipofectamine™2000 complexes were added into the 150 mm dish and mixed gently by rocking the dish back and forth. • The cells were incubated at 37° C. with 5% CO2 for 48 hours. Cells were collected and stored frozen at −80° C. Procedures for HEK293AT2 Receptor Cell Membrane Preparation • Frozen HEK293AT2 receptor (transient transfected) cells were homogenized in ice cold TE buffer for 10s. • The homogenate was centrifuged at 25,000 g for 30 minutes. • The pellet was resuspended in ice cold tissue buffer. • Protein concentrations were determined using Bradford assay method with BSA as standard. • The membrane protein was frozen under −80° C. Compound Preparation
Solutions of all compounds were prepared bymicroplate liquid handling equipment such as Janus or Precision 2000. Compounds, dissolved in DMSO were stored in a Freezer. Compounds were prepared from 30 mM in 100% DMSO.
Step 1: Dose Plate Preparation (96 Well Plate)
• Add the 3 μL [30 mM] compound stock to column 1 on the plate. • Add 15 μL of 100% DMSO to column 1. • Add 10.81 μL of 100% DMSO to column 2-12. • Transfer 5 μL from column 1 into column 2 (half log dilution). • Transfer 5 μL from column 2 into column 3 (half log dilution). • Transfer 5 μL from column 3 into column 4 (half log dilution). • Transfer 5 μL from column 4 into column 5 (half log dilution). • Transfer 5 μL from column 5 into column 6 (half log dilution). • Transfer 5 μL from column 6 into column 7 (half log dilution). • Transfer 5 μL from column 7 into column 8 (half log dilution). • Transfer 5 μL from column 8 into column 9 (half log dilution). • Transfer 5 μL from column 9 into column 10 (half log dilution) • Transfer 5 μL from column 10 into column 11 (half log dilution) • Transfer 5 μL from column 11 into column 12 (half log dilution).
All the compounds were diluted using Precision 2000 microplate liquid handling equipment. The top concentration of compound was 5 mM with 100% DMSO.
Step 2: Working Plate Preparation (96 Well Plate)
• Compounds were diluted 50-fold with buffer. • 49 μL buffer was added to the well of 96 well plate. • 1 μL compound solution from dose plate was transferred to the corresponding well of working plate. • The top concentration of compound was 100 μM with 2% DMSO. Step 3: Assay Plate Preparation (96 Well Plate)
15 μL of compound solution was transferred from each well of working plate to the well of assay plate by Janus.

Chain of AT2 receptor (P50052 whole entry, species assumed): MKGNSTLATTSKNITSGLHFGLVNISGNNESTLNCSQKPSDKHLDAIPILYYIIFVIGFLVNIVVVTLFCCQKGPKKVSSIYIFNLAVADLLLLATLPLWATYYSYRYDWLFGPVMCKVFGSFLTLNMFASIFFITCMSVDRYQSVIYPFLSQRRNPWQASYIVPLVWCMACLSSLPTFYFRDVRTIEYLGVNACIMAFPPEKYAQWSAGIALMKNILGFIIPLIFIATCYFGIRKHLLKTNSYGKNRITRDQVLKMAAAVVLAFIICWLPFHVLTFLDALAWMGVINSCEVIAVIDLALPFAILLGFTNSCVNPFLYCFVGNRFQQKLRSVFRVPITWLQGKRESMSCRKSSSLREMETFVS

SMILES | IC50
O=C(O)[C@@H]1C[C@H](OC[C@@H]2C[C@@H]2c2ccccc2)CN1C(=O)C(c1ccccc1)c1ccccc1 (mixture of isomers) [Compound 17, (2S,4S)-1-(2,2-diphenylacetyl)-4-(((1R,2S)-2-phenylcyclopropyl)methoxy)pyrrolidine-2-carboxylic acid and (2S,4S)-1-(2,2-diphenylacetyl)-4-(((1S,2R)-2-phenylcyclopropyl)methoxy)pyrrolidine-2-carboxylic acid] | 3970 nM
O=C(O)[C@@H]1C[C@H](SCCCc2ccc(F)cc2)CN1C(=O)C(c1ccccc1)c1ccccc1 [Compound 133, (2S,4S)-1-(2,2-diphenylacetyl)-4((3-(4-fluorophenyl)propyl)thio)pyrrolidine-2-carboxylic acid] | 1740 nM
O=C(O)[C@@H]1C[C@H](CSCc2ccccc2)CN1C(=O)C(c1ccccc1)c1ccccc1 [Compound 121, (2S,4S)-4-((benzylthio)methyl)-1-(2,2-diphenylacetyl)pyrrolidine-2-carboxylic acid] | 57.7 nM
O=C(O)[C@@H]1C[C@H](c2ncc(-c3ccccc3)o2)CN1C(=O)C(c1ccccc1)c1ccccc1 [Compound 56] | 315 nM
CN(CCCc1ccccc1)[C@@H]1CN(C(=O)C(c2ccccc2)c2ccccc2)C[C@H]1C(=O)O (mixture of isomers) [Compound 67, (3R,4S)-1-(2,2-diphenylacetyl)-4-(methyl(3-phenylpropyl)amino)pyrrolidine-3-carboxylic acid and (3S,4R)-1-(2,2-diphenylacetyl)-4-(methyl(3-phenylpropyl)amino)pyrrolidine-3-carboxylic acid] | 3660 nM
O=C(O)[C@@H]1C[C@H](N2CC[C@H](c3ccccc3)C2)CN1C(=O)C(c1ccccc1)c1ccccc1 [Compound 87] | 43.6 nM
CN(CC#Cc1ccccc1)[C@H]1C[C@@H](C(=O)O)N(C(=O)C(c2ccccc2)c2ccccc2)C1 [Compound 116, (2S,4S)1-(2,2-diphenylacetyl)-4-(methyl(3-phenylprop-2-yn-1-yl)amino)pyrrolidine-2-carboxylic acid] | 650 nM
O=C(O)[C@@H]1C[C@H](N2CCC[C@@H]3CN(Cc4ccccc4)C[C@@H]32)CN1C(=O)C(c1ccccc1)c1ccccc1 [Compound 85, (2S,4S)-4-((4aR,7aR)-6-benzoctahydro-1H-pyrrolo[3,4-b]-pyridin-1-yl)-1-(2,2-diphenylacetyl)pyrrolidine-2-carboxylic acid] | 103 nM
O=C(O)[C@@H]1C[C@H](c2sccc2-c2ccccc2)CN1C(=O)C(c1ccccc1)c1ccccc1 [Compound 107, (2S,4S)-1-(2,2-diphenylacetyl)-4-(3-phenylthiophen-2-yl)-pyrrolidine-2-carboxylic acid] | 461 nM
O=C(O)[C@@H]1C[C@H](CS(=O)(=O)Cc2ccccc2)CN1C(=O)C(c1ccccc1)c1ccccc1 [Compound 118, (2S,4S)-4-((benzylsulfonyl)methyl)-1-(diphenylacetyl)-pyrrolidine-2-carboxylic acid] | 314 nM
O=C(O)[C@@H]1C[C@H](N2CCN(c3ccccc3)CC2)CN1C(=O)C(c1ccccc1)c1ccccc1 [Compound 23, (2S,4S)-1-(2,2-diphenylacetyl)-4-(4-phenylpiperazine)pyrrolidine-2-carboxylic acid] | 290 nM
CN(CCCc1ccc(F)cc1)[C@H]1C[C@@H](C(=O)O)N(C(=O)C(c2ccccc2)c2ccccc2)C1 [Compound 91, (2S,4S)-1-(2,2-diphenylacetyl)-4-((3-(4-fluorophenyl)-propyl)(methyl)amino)pyrrolidine-2-carboxylic acid] | 12 nM
O=C(O)[C@@H]1C[C@H](CS(=O)(=O)c2ccccc2)CN1C(=O)C(c1ccccc1)c1ccccc1 [Compound 119, (2S,4S)-4-((phenylsulfonyl)methyl)-1-(diphenylacetyl)-pyrrolidine-2-carboxylic acid] | 2650 nM
O=C(O)[C@@H]1C[C@H](CSCCc2ccccc2)CN1C(=O)C(c1ccccc1)c1ccccc1 [Compound 120, (2S,4S)-1-(2,2-diphenylacetyl)-4-((phenethylthio)methyl)pyrrolidine-2-carboxylic acid] | 1200 nM
COc1ccc(CCCN(C)[C@H]2C[C@@H](C(=O)O)N(C(=O)C(c3ccccc3)c3ccccc3)C2)cc1C [Compound 92, (2S,4S)-1-(2,2-diphenylacetyl)-4-((3-(4-methoxy-3-methylphenyl)propyl)(methyl)amino)pyrrolidine-2-carboxylic acid] | 134 nM
CN(C)S(=O)(=O)NC(=O)[C@@H]1C[C@H](OCCCc2ccccc2)CN1C(=O)C(c1ccccc1)c1ccccc1 [Compound 112, (2S,4S)—N—(N,N-dimethylsulfamoyl)-1-(2,2-diphenylacetyl)-4-(3-phenylpropoxy)pyrrolidine-2-carboxamide] | 255 nM
O=C(O)[C@@H]1C[C@H](CS(=O)(=O)CCc2ccccc2)CN1C(=O)C(c1ccccc1)c1ccccc1 [Compound 58, (2S,S)-1-(2,2-diphenylacetyl)-4-((phenethylsulfonyl)methyl)pyrrolidine-2-carboxylic acid] | 3050 nM
O=C(O)[C@@H]1C[C@H](N2CCC[C@@H](c3ccccc3)C2)CN1C(=O)C(c1ccccc1)c1ccccc1 [Compound 48, (2S,4S)-1-(2,2-diphenylacetyl)-4-((S)-3-phenylpiperidine-1-yl)pyrrolidine-2-carboxylic acid] | 89.4 nM
CN(CCCc1ccc(F)cc1)[C@H]1C[C@@H](C(=O)NS(=O)(=O)N(C)C)N(C(=O)C(c2ccccc2)c2ccccc2)C1 [Compound 114, (2S,4S)—N—(N,N-dimethylsulfamoyl)-1-(2,2-diphenylacetyl)-4-((3-(4-fluorophenyl)propyl)(methyl)amino)pyrrolidine-2-carboxylic acid] | 17.1 nM
O=C(O)[C@@H]1C[C@H](OC[C@@H]2C[C@H]2c2ccccc2)CN1C(=O)C(c1ccccc1)c1ccccc1 (mixture of isomers) [Compound 16, (2S,4S)-1-(2,2-diphenylacetyl)-4-(((1R,2R)-2-phenylcyclopropyl)methoxy)pyrrolidine-2-carboxylic acid and (2S,4S)-1-(2,2-diphenylacetyl)-4-(((1S,2S)-2-phenylcyclopropyl)methoxy)pyrrolidine-2-carboxylic acid] | 6650 nM
O=C(O)[C@@H]1C[C@H](OCC#Cc2ccccc2)CN1C(=O)C(c1ccccc1)c1ccccc1 [Compound 36, (2S,4S)-1-(2,2-diphenylacetyl)-4-((3-phenylprop-2-yn-1-yl)-oxy)pyrrolidine-2-carboxylic acid] | 1660 nM
O=C(O)[C@@H]1C[C@H](S(=O)(=O)CCCc2ccccc2)CN1C(=O)C(c1ccccc1)c1ccccc1 [Compound 125, (2S,4S)-1-(2,2-diphenylacetyl)-4-((3-phenylpropyl)-sulfonyl)pyrrolidine-2-carboxylic acid] | 1240 nM
O=C(O)[C@@H]1C[C@H](SCCCc2ccccc2)CN1C(=O)C(c1ccccc1)c1ccccc1 [Compound 124, (2S,4S)-1-(2,2-diphenylacetyl)-4-((3-phenylpropyl)thio)-pyrrolidine-2-carboxylic acid] | 363 nM
O=C(O)C1Cc2c(OCc3ccccc3)cccc2N1C(=O)C(c1ccccc1)c1ccccc1 (stereo not drawn) [Compound 15, 4-(benzyloxy)-1-(2,2-diphenylacetyl)indoline-2-carboxlic acid] | 54.5 nM
